Measured values from PMC10691236 (Proceedings of the National Academy of Sciences of the …, 2023).
Read-outs that look alike come from different tables or passages of the source. Each block holds one compound with its values, some of them ahead of it.

Experiments:
CDK2/cyclin E1 = CDK2/cyclin E1 (Homo sapiens, UniProt P24941); assay: CDK2/cyclin E1 ATPase assay (ADP-Glo; phosphorylation of histone H1)
Description: Following a 30-min preincubation of the enzyme and inhibitor in the reaction mixture at room temperature, reactions were initiated with the addition of ATP and histone H1. Kinase reactions were carried out at room temperature for 30 min before reactions were quenched with the addition of one volume of ADP-Glo™ reagent (Promega). Following a 60-min incubation at room temperature to remove excess ATP, two volumes of Kinase Detection Reagent (Promega) were added to the sample. The luminescence signal was allowed to develop for 30 min before being measured on a Spark multimode plate reader (Tecan). […] IC50 values were calculated from the dose–response curves using Prism 9 (four-parameter, variable slope).

[1] = parameters: method as in PMID 27537356; conditions: isolated from A. fumigatus and P. roseopurpurin; ref [30], [31]; cited from earlier work
[2] = biological target: T1, luciferase-CDK2/cyclin E1 in HEK293 cells (Homo sapiens, UniProt P24941); assay: cell-based; conditions: for inhibition at 50 µM: nanoBRET, read-out: inhibition at the highest concentration tested (IC50 ND); for IC50: average ± SD, n = 6, read-out: IC50, inhibition of luciferase-CDK2/cyclin E1 nanoBRET signal
T1 construct: NV2641 (CCNE1); host or cells: HEK293 (ATCC CRL-1573)
Description: HEK293 cells were cultured in Roswell Park Memorial Institute (RPMI) (Invitrogen) with 10% fetal bovine serum (FBS; Invitrogen). For transfection, HEK293 cells were trypsinized and resuspended in Opti-MEM I Reduced Serum, no phenol red medium (Invitrogen) with 1% FBS at a concentration of 2 × 10^5 cells/mL. Five hundred microliters of a 10 μg/mL solution of DNA was prepared by adding 1 μg/mL of CDK2-NanoLuc Fusion Vector (Promega; NV2781) to 9 μg/mL of CCNE1 Expression Vector (Promega; NV2641) in Opti-MEM I Reduced Serum, no phenol red media. Thirty microliters of FuGENE HD Transfection Reagent (Promega) was added to each milliliter of DNA mixture. The lipid-DNA mixture was incubated at room temperature for 20 min.
Posttransfection, the media were replaced with fresh Opti-MEM I Reduced Serum, no phenol red medium. NanoBRET Tracer reagent K-10 […] was added at a concentration of […] (1% DMSO final) along with 0.2% DMSO (± inhibitor). […] Following incubation, plates were removed from the incubator and allowed to equilibrate to room temperature for 15 min. A 3× Complete Substrate Plus Inhibitor Solution was made by adding 30 μL of NanoBRET Nano-Glo Substrate (Promega), 10 μL of Extracellular NanoLuc Inhibitor (Promega), and 4,960 μL of Opti-MEM reduced serum medium, no phenol red (Invitrogen). […] IC50 values were calculated from the dose–response curves using Prism 9 (four-parameter, variable slope). Experiments were performed in triplicate with technical duplicates in each run.

[3] = from CDK2/cyclin E1 IC50 values (Fig. 3B)
[4] = read-out: IC50, inhibition of CDK2/cyclin E1-dependent phosphorylation of Histone H1, commercially available depsides and depsidones, n=2

effect on luminescence values in CDK2/cyclin E1 ADP-detection assay (CDK2/cyclin E1; commercial compound screen, n=2): increased luminescence values
Compound: Cc1cc(O)c(C=O)c2c1C(=O)Oc1c(COC(=O)/C=C/C(=O)O)c(O)c(C(=O)O)c(C)c1O2 [Fumarprotocetriaric acid, fumarprotocetraric acid, reference compound]

Compound: CO[C@@]1(C)[C@H](O)C(=O)C(C)=C2OC(=O)c3c(C)cc(O)c(C)c3O[C@@H]21 [compound 1, roseopurpurin C]
cytotoxicity [1]: generally cytotoxic

Compound: Cc1cc(O)c(C)c(O)c1C(=O)Oc1cc(C)c(C(=O)O)c(O)c1C [compound 6, 4-o-demethyl barbatic acid]
inhibition at 50 µM [2]: ≤ 50% | inhibition at 100 µM (CDK2/cyclin E1; read-out: inhibition at the highest concentration tested (IC50 ND)): ≤ 50%

Compound: Cc1cc(O)c(C)c2c1C(=O)Oc1c(C)c(O)c(C(=O)O)c(C)c1O2 [compound 7, hypoprotocetraric acid]
improvement of potency by addition of the 4-OH, relative to 8 (CDK2/cyclin E1; [3]): approximately ninefold

IC50 [2]: 27 ± 7 µM | IC50 (CDK2/cyclin E1): 6.1 ± 0.5 µM
Compound: Cc1cc(O)c(C)c2c1Oc1c(C)c(O)cc(C)c1C(=O)O2 [compound 8, 3,8-dihydroxy-1,4,6,9-tetramethyl-dibenzo[b,e][1,4]dioxepin-11-one]

Compound: Cc1cc(O)c(C)c2c1C(=O)Oc1c(C)c(O)c(O)c(C)c1O2 [compound 10, roseopurpurin G]
IC50 [2]: 40 ± 20 µM | cytotoxicity [1]: generally cytotoxic | IC50 (CDK2/cyclin E1): 0.7 ± 0.1 µM

Compound: CO[C@@]1(C)[C@H](O)C(O)=C(C)C(=O)[C@@H]1Oc1cc(C)cc(O)c1C [compound 11, aculeatusquinone C]
inhibition at 50 µM [2]: ≤ 50% | IC50 (CDK2/cyclin E1): 42 ± 2 µM | fold reduction in activity/potency relative to 1 (CDK2/cyclin E1; [3]): approximately 900 fold

Compound: C/C=C(/C)c1cc(O)c(C)c2c1Oc1c(C)c(O)cc(/C(C)=C\C)c1C(=O)O2 [folipastatin, reference compound]
IC50 (CDK2/cyclin E1; [4]): 24 µM

Compound: C/C=C(\C)c1cc(O)c(C)c2c1Oc1cc(O)cc(C)c1C(=O)O2 [unguinol, Unguinol, reference compound]
IC50 (CDK2/cyclin E1; [4]): 14 µM
